Assays:
3T3L1 adipocytes [1] = test: FFA release from 3T3L1 adipocytes; type: cell-based, murine; conditions: adipocytes pretreated with 10 μM, starting 48 hours before collection of conditioned media
Description: (§1) Murine 3T3L1 adipocytes and human HepG2 cells were obtained from the ATCC. 3T3L1 adipocytes were maintained in Dulbecco Modified Eagle Medium (DMEM) containing 25 mM glucose (Gibco) supplemented with 10% cosmic calf serum (CCS), and adipocyte differentiation was induced as previously described (Ntambi et al., (1988) J. Biol. Chem. 263, 17291-17300). Briefly, preadipocytes were grown in 10 cm dishes until they are fully confluent. At confluent state, 10% bovine calf serum (BCS) containing DMEM medium was replaced with 10% fetal bovine serum (FBS) containing DMEM for two days. Differentiation was induced by FBS medium containing 5 μg/ml Insulin (Sigma, 15500), 0.5 mM IBMX (Sigma, 15879), 1 μM Dexamethasone (Sigma, D4902), and 1 μM Rosiglitazone (Cayman Chemical, 71740). After two days, medium was replaced with FBS medium containing 5 μg/ml Insulin every other day until the cells were completely differentiated at day 10. For siRNA experiment, differentiated 3T3-L1 adipocytes were transfected using Amaxa Nucleofector Kit L (Lonza, VCA-1005) according to the manufacturer's protocol. […]
Triglyceride (TG) levels were analyzed using triglyceride assay kit (Randox) and Cholesterol levels were analyzed using by Infinity cholesterol kid (Thermo Scientific). FFA levels in culture media were measured using a NEFA-HR2 kit (Wako) following the manufacturer's instructions.

HepG2 cells [2] = test: De novo lipogenesis (DNL) in HepG2 cells treated with conditioned media from lipolysis-stimulated adipocytes (3H2O incorporation); type: cell-based, human
Description: Murine 3T3L1 adipocytes and human HepG2 cells were obtained from the ATCC. 3T3L1 adipocytes were maintained in Dulbecco Modified Eagle Medium (DMEM) containing 25 mM glucose (Gibco) supplemented with 10% cosmic calf serum (CCS), and adipocyte differentiation was induced as previously described (Ntambi et al., (1988) J. Biol. Chem. 263, 17291-17300). Briefly, preadipocytes were grown in 10 cm dishes until they are fully confluent. At confluent state, 10% bovine calf serum (BCS) containing DMEM medium was replaced with 10% fetal bovine serum (FBS) containing DMEM for two days. Differentiation was induced by FBS medium containing 5 μg/ml Insulin (Sigma, 15500), 0.5 mM IBMX (Sigma, 15879), 1 μM Dexamethasone (Sigma, D4902), and 1 μM Rosiglitazone (Cayman Chemical, 71740). After two days, medium was replaced with FBS medium containing 5 μg/ml Insulin every other day until the cells were completely differentiated at day 10. For siRNA experiment, differentiated 3T3-L1 adipocytes were transfected using Amaxa Nucleofector Kit L (Lonza, VCA-1005) according to the manufacturer's protocol. Briefly, differentiated adipocytes were trypsinized and centrifuged at 100 g for 10 minutes. 3×10^6 cells per 6-well were transfected with 120 pmol/sample Control siRNA (Dharmacon, D-001810-10) or mouse aP2 siRNA (Dharmacon, L-042923-01) using Nucleofector Program A-33. Transfected cells were seeded in Collagen I coated 6-well plates (Corning, 356400). Conditioned media for stimulation of HepG2 cells were prepared in DMDM 3.3 mM glucose supplemented with 0.5% FBS before (basal) and after (lipolysis stimulated) the lipolysis stimulation with 1 mM IBMX. For explant studies, adipose tissue was removed from 8-12 weeks-old littermate mice, minced and washed 5× with DMEM high glucose supplemented with 10% CCS. Twenty pieces of adipose tissue were placed into 6-well plates in 2 ml DMEM high glucose with 10% CCS and incubated for 1 hr. Then conditioned media for stimulation of HepG2 cells were prepared in […] 3.3 mM glucose supplemented with 0.5% FBS before (basal) and after (lipolysis stimulated) the lipolysis stimulation with 1 mM 3-isobutyl-1-methylxanthine (IBMX). For antibody neutralization, 10 nM (for 3T3L1 cells) or 20 nM (for adipose tissue explant) of IgG, CA33, or CA15 antibody was added to DMDM 3.3 mM glucose supplemented with 0.5% FBS was used for the preparation of “basal” and “lipolysis stimulated” conditioned media.
(§2) For maintenance, HepG2 cells were cultured in DMEM containing 5.5 mM glucose (Gibco) supplemented with 10% FBS. For DNL and p-AMPK analysis, HepG2 cells were cultured in DMDM 3.3 mM glucose supplemented with 0.5% FBS, seeded 2×10^5 cells in 12 well plate or 4×10^5 cells in 6 well plate for DNL analysis and p-AMPK analysis, respectively.
For DNL analysis, after overnight culture, the cells were stimulated with conditioned media or 2-AG/aP2 complex and […] of ^3H2O were added 30 min after the stimulation (Gnoni et al., (1985) Biochem. & Biophysical Res. Comm. 128, 525-530; Lowenstein et al., Meth. Enzym. 35, 279-287). […] The cell lysate was analyzed for protein concentration and total lipid was extracted by Dole's extraction method (Dole et al., (1960) J. Biol. Chem. 235, 2595-2599). ^3H incorporation into de novo synthesized lipids were analyzed by scintillation count and calculated as count per μg protein. […] AMPK phosphorylation was determined by western blot (see below).

HepG2 cells [3] = test: DNL in HepG2 cells stimulated with 2-AG/aP2 complex (3H2O incorporation); type: cell-based, human; conditions: for stimulation of DNL in HepG2 cells: final concentration in culture media 10 nM
Description: as §2
For DNL analysis, after overnight culture, the cells were stimulated with conditioned media or 2-AG/aP2 complex and […] of ^3H2O were added 30 min after the stimulation (Gnoni et al., (1985) Biochem. & Biophysical Res. Comm. 128, 525-530; Lowenstein et al., Meth. Enzym. 35, 279-287). After 2 hours of incubation with ^3H2O, cells were washed with PBS and lysed with 0.1N NaOH. The cell lysate was analyzed for protein concentration and total lipid was extracted by Dole's extraction method (Dole et al., (1960) J. Biol. Chem. 235, 2595-2599). ^3H incorporation into de novo synthesized lipids were analyzed by scintillation count and calculated as count per μg protein. For p-AMPK analysis, after overnight culture, cells were stimulated with conditioned media or 2-AG/aP2 complex for 30 min. The cells were washed twice with ice cold PBS and lysed with ice cold RIPA buffer (Cell Signaling) supplemented with 1 mM PMSF. AMPK phosphorylation was determined by western blot (see below).
(§3) 10 or 20 μM delipidated mouse recombinant aP2 protein with or without 10 μM 2-AG were diluted in 50 mM potassium phosphate buffer (pH 7.4) and incubated at 37C for overnight. The ratio of aP2 binding to 2-AG was determined by 8-Anilinonaphthalene-1-sulfonic acid (ANS) assay. For antibody neutralization, IgG, CA33, or CA15 antibody at final concentration of 20 μM was added to 50 mM potassium phosphate buffer (pH 7.4) only or to delipidated mouse recombinant aP2 protein (final 10 μM) with 2-AG (final 10 μM) solution in 50 mM potassium phosphate buffer (pH 7.4) and incubated at 37° C. overnight. Final concentration in culture media for aP2, 2-AG, and antibodies were 10, 10, and 20 nM, respectively.

3T3L1 adipocytes [4] = test: aP2 secretion from 3T3L1 adipocytes into conditioned media; type: cell-based, murine; conditions: adipocytes pretreated with 10 μM, starting 48 hours before collection of conditioned media
Description: as §1, with “protocol. Briefly, differentiated adipocytes were trypsinized and centrifuged at 100 g for 10 minutes. 3×10^6 cells per 6-well were transfected with 120 pmol/sample Control siRNA (Dharmacon, D-001810-10) or mouse aP2 siRNA (Dharmacon, L-042923-01) using Nucleofector Program A-33.” for “protocol.”

AMPK(Thr172) = test: AMPK phosphorylation in HepG2 cells by western blot; type: cell-based, human; conditions: 5 μM alone
Description: as §2
For DNL analysis, after overnight culture, the cells were stimulated with conditioned media or 2-AG/aP2 complex and […] of ^3H2O were added 30 min after the stimulation (Gnoni et al., (1985) Biochem. & Biophysical Res. Comm. 128, 525-530; Lowenstein et al., Meth. Enzym. 35, 279-287). After 2 hours of incubation with ^3H2O, cells were washed with PBS and lysed with 0.1N NaOH. The cell lysate was analyzed for protein concentration and total lipid was extracted by Dole's extraction method (Dole et al., (1960) J. Biol. Chem. 235, 2595-2599). ^3H incorporation into de novo synthesized lipids were analyzed by scintillation count and calculated as count per μg protein. […] AMPK phosphorylation was determined by western blot (see below).
The antibodies used were rabbit anti-pAMPK (Cell Signaling), anti-actin HRP conjugated (Abcam), in-house anti-aP2 (H3) HRP conjugated antibodies. For quantification, Western blot images were captured and band intensities were analyzed using ImageJ software.

aP2 [5] = target: T1, aP2 (Mus musculus, UniProt P04117); test: 8-Anilinonaphthalene-1-sulfonic acid (ANS) binding assay; design: His tag (cleaved yes); made in house; host or cells: Escherichia coli BL21DE3 (Pet28a plasmid)
T1 sequence (P04117 1-132): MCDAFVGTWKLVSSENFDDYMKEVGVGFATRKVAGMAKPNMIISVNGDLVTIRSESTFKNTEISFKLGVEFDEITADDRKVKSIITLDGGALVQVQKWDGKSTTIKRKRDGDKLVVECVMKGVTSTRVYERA
Description: as §3
aP2 or aP2/lipid solution (final aP2 concentration 1 μM) and ANS (final 5 μM) was diluted in 50 mM potassium phosphate buffer (pH 7.4) and fluorescence Ex/Em 375/475 was measured.

aP2 [6] = target: T1, aP2; test: Microscale thermophoresis assay; type: binding; design: His tag (cleaved yes); made in house; conditions: fluorescence labeled purified aP2 protein
Description: It has been reported that both 2-AG and AEA have similar affinity for the CB1 receptor (Stella et al., (1997) Nature 388, 773-778; Felder et al., (1993) PNAS 90, 7656-7660), and only the level of 2-AG in serum is regulated in obesity (Bluher et al., (2006) Diabetes 55, 3053-3060). The potential interaction between 2-AG and aP2 was tested. […] Finally, to resolve the mechanism and structural determinants of this interaction, aP2 and 2-AG was co-crystallized, confirming the ability of these two molecules to bind. In Ca superposition, the root mean square deviation (RMSD) between mouse 2-AG/FABP4 complex and apo mouse FABP4 structure was about 0.548 A (see FIG. 3G). […] Due to steric hindrance of the acyl chain of 2-AG, the Phe57 side chain was modelled as open position in the complex structure. The polar head group of 2-AG was stabilized by hydrogen bond interactions with R127, R107, Y129 and S54 of FABP4 (see FIG. 3H).

## CCc1c(-c2ccccc2)c(-c2ccccc2)nn1-c1ccccc1-c1cccc(OCC(=O)O)c1 [BMS-309403]
3T3L1 adipocytes [1]
  FFA secretion: did not alter
HepG2 cells [2]; 3T3L1 adipocytes pretreated with 10 μM, starting 48 hours before collection
  ability of conditioned media from lipolysis-stimulated 3T3L1 adipocytes to induce DNL in HepG2 cells: completely inhibited
HepG2 cells [2]; Fabp-deficient adipocytes pre-incubated with 10 μM
  effect on DNL in HepG2 cells treated with conditioned media from Fabp-deficient adipocytes: no additional or Fabp-independent effect on DNL
HepG2 cells [3]; added during 2-AG/aP2 complex formation
  effect of 2-AG/aP2 complex on DNL in HepG2 cells: eliminated the effect of 2-AG/aP2 complex on DNL
3T3L1 adipocytes [4]
  aP2 secretion: did not alter

## CCCCC/C=C\C/C=C\C/C=C\C/C=C\CCCC(=O)OC(CO)CO [2-AG, 2-Arachidonoylglycerol]
AMPK(Thr172)
  dephosphorylation of AMPK(Thr172) in HepG2 cells: same level
HepG2 cells [3]
  stimulation of DNL in HepG2 cells: nor 2-AG alone stimulated DNL
aP2 [5]; after overnight incubation of delipidated recombinant aP2 with 2-AG
  binding of 2-AG to aP2 by ANS assay: confirmed binding
aP2 [5]; compared with mall (Fabp5)
  binding affinity of aP2 to the lipid, substrate competition with ANS: same affinity as does mall

## Cc1c(C(=O)NN2CCCCC2)nn(-c2ccc(Cl)cc2Cl)c1-c1ccc(Cl)cc1 [Rimonabant]
HepG2 cells [2]; HepG2 cells treated with 1 μM
  induction of DNL by conditioned media from lipolysis-stimulated 3T3L1 adipocytes: completely inhibited induction of DNL

## CCCCCCCC/C=C\CCCCCCCC(=O)O [oleate]
aP2 [6]
  Kd of direct binding to aP2: an affinity similar to that observed for oleate

B1: CA33: therapeutically active aP2 monoclonal antibody; the rabbit 909 heavy and light chain comprise CA33 (antibody, V domains shown)
VH: QSVEESGGRLVTPGTPLTLTCTVSGFSLSTYYMSWVRQAPGKGLEWIGIIYPSGSTYCASWAKGRFTISKASTTVDLKITSPTTEDTATYFCARPDNDGTSGYLSGFGLWGQGTLVTVSS
VL: DVVMTQTPASVSEPVGGTVTIKCQASEDISRYLVWYQQKPGQPPKRLIYKASTLASGVPSRFKGSGSGTDFTLTISDLECDDAATYYCQCTYGTYAGSFFYSFGGGTEVVVE
modifications: Rabbit Ab 909 VH region; Rabbit Ab 909 VL-region
HepG2 cells [2]; antibody (10 nM for 3T3L1 cells) added to conditioned media, IBMX lipolysis stimulation
  induction of DNL by conditioned media from lipolysis stimulated adipocytes in HepG2 cells: completely prevented the induction of DNL
HepG2 cells [3]; complex formed in the presence of antibody (20 μM, final 20 nM in culture media)
  ability of 2-AG/aP2 complex to regulate DNL in HepG2 cells: lost its ability to regulate DNL

B2: aP2: delipidated mouse recombinant aP2 protein (adipocyte lipid binding protein) (protein)
chain: CDAFVGTWKLVSSENFDDYMKEVGVGFATRKVAGMAKPNMIISVNGDLVTIRSESTFKNTEISFKLGVEFDEITADDRKVKSIITLDGGALVQVQKWDGKSTTIKRKRDGDKLVVECVMKGVTSTRVYERA
HepG2 cells [2]; added to conditioned media from 3T3L1 adipocytes with siRNA-mediated aP2 suppression
  rescue of DNL in HepG2 cells: not sufficient to rescue DNL
HepG2 cells [3]
  stimulation of DNL in HepG2 cells: neither aP2 nor 2-AG alone stimulated DNL

Reference: patent US12673987B2, “Method to identify compounds useful to treat dysregulated lipogenesis, diabetes, and related disorders” (President and Fellows of Harvard College, priority 2017, dated 2026)
